System: Aβ peptide naturally expressed by HEK 293 cells
Assay: Acid urea gel / western blot analysis of Aβ peptide in purified antibody from HEK 293 cell culture with γ-secretase inhibitor
Format: cell-based, human
Conditions: for FL (Full length hAβ40) / T2 (N-terminal truncated hAβ40, #2): no-inhibitor control 70; for T1 (N-terminal truncated hAβ40, #1): no-inhibitor control 38; for Total hAβ40: no-inhibitor control 178
Method: A γ-secretase inhibitor, [drawing 1] (WO 98/28268), is added to the HEK 293 cell culture in which an anti-Aβ antibody is being expressed to reduce the amount of Aβ peptide naturally expressed by cells. Cell culture samples for this example include a control culture with no inhibitor added, a culture in which 1 nM inhibitor is added at time=0 and every 24 hours thereafter for 5 days (for a 5 day transfection), and a culture in which 1 nM inhibitor is added at time=0. These samples are purified using a Protein A column as well as size exclusion chromatography. The samples are analyzed for Aβ peptide content by acid-urea gel separation and subsequent western blot analysis as detailed below.
The following protocol describes a technique for formic acid denaturation of samples and subsequent electrophoresis through an acid-urea polyacrylamide matrix:
• 1) Clean and assemble acrylamide gel plates for casting. For example, Hoeffer plates into a casting stand (16 cm×14 cm plates with 1.5 mm spacers). Clean plates thoroughly with detergent, rinse in distilled H2O(dH2O), rinse with acetone, and finally rinse with 100% EtOH. • 2) Mark plates at 10 cm (22% separating gel) and 11.75 cm (10% step gel). Making the Gel and Gel Concentrations • 1) Acrylamide (40% solution, such as pre-made Bio-Rad/cat#161-0148)
• Add urea, acrylamide, glacial acetic acid (GAA), and dH2O into 50 mL conical tubes. Vortex briefly and incubate in a 55° C. water bath. Vortex every few minutes until the urea is completely in solution. Degas 22% and 10% solutions and place solutions on ice, leaving the 4% stacker in the water bath. Pouring the Gel (at Room Temperature) • 1) Add N,N,N′,N′-tetramethylethylenediamine (TEMED) to the 22% solution and gently invert several times to mix. Next add the 10% APS (ammonium persulfate) and invert several times. Using a 25 mL pipette, slowly pour solution between the plates until it reaches the 10 cm mark. • 2) Carefully add a 750 μL overlay of 5% GAA. Use a P1000 pipette to very slowly let the 5% GAA run down one side of the glass plates onto the 22% resolving gel. • 3) Allow to polymerize at room temperature for at least 1 hour. • 4) Add the TEMED and 10% APS to the 10%-acrylamide solution in the same manner as for the 22%. Remove the overlay and add the solution until reaching the second mark at 11.75 cm. Again, carefully pour a 750 μL overlay of 5% GAA as above. Allow the gel to polymerize for 30 minutes. • 5) Prior to adding the 4% stacker solution, place the gel stand in a 37° C. incubator for 15 minutes to warm gels. This aids in the wells polymerizing correctly. Degas the 4% stacker solution and keep at 55° C. Remove the overlay. Add the TEMED, invert several times, and then add the 10% APS. Quickly pour this solution and insert a clean-dry 12-well comb (or a 15-well comb). After pouring the stacker, place the stand back in the incubator for 15 minutes then remove. Allow to polymerize on the bench top. The stacker will take at least 1.5 hours to polymerize completely. • *Note: During the polymerization steps, air pockets may appear in the resolving gel. These pockets form due to the change in temperature of the gel during and after polymerization. […] Sample Preparation • Analysis upwards of 3 mg of protein in a single lane will achieve reasonable band results. Conditions for analyzing protein are as follows.
Sample: • 30 μL of […] protein (maximum concentration of protein) • 80 μL formic acid (98%) (ICN cat#15162-90) • 20 μL Acid Loading Buffer (80% formic acid, 60% sucrose and 0.02% methyl green; • Make buffer by dissolving 6 g sucrose in ˜8 mL of ˜99% formic acid. Heat and agitate the mixture. After the sucrose has dissolved, the volume of the solution is adjusted to 10 mL with ˜99% formic acid. Add 2 μL of 1% methyl green solution.) • 1 μl β-Mercaptoethanol • *Note: Adjust volumes as needed. […]

[1] = HEK 293 culture, 1 nM inhibitor added at time=0 only
[2] = HEK 293 culture, 1 nM inhibitor at time=0 and every 24 hours for 5 days

`C[C@H](NC(=O)[C@@H](O)c1cc(F)cc(F)c1)C(=O)N[C@@H]1C(=O)N(C)c2ccccc2-c2ccccc21` [Inhibitor] was tested, and the “FL (Full length hAβ40)” value (HEK 293 culture expressing anti-Aβ antibody, 1 nM inhibitor added at time=0 and every 24 hours for 5 days) was 4 pg/μg IgG, the “T1 (N-terminal truncated hAβ40, #1)” value [1] was 27 pg/μg IgG and the “FL (Full length hAβ40)” value [1] was 56 pg/μg IgG. For the same compound, the “T2 (N-terminal truncated hAβ40, #2)” value [1] was 52 pg/μg IgG, the “Total hAβ40” value [1] was 135 pg/μg IgG and the “T1 (N-terminal truncated hAβ40, #1)” value [2] was 0 pg/μg IgG. The “T2 (N-terminal truncated hAβ40, #2)” value [2] was 3 pg/μg IgG and the “Total hAβ40” value [2] was 7 pg/μg IgG.

Source: US20070190046A1, “Anti-abeta antibody” (Eli Lilly and Company, priority 2004, published 2007)
